Laboratory results: patent US4191780A, “Bromhexine derivatives and process for making same” (priority 1978, dated 1980)
“Also recorded” adds a separate entry of the source.

Tests used:
[1] = tested on: Pain induced by a chemical stimulus; assay: Siegmund Test: pain induced by a chemical stimulus (acetic acid writhing); format: in vivo, mice; conditions: mouse, 300 mg/kg oral
Description: (§1) Two test methods are used for establishing the action of Bromhexine and IFT 1026 on noci-ceptive stimuli in mice.
(§2) (a) Pain induced by a chemical stimulus according to the method of Siegmund (Siegmund E., Cadmier, R., and Lu, G. Proc. Soc. exp. Biol. N.Y. 95, 729--1957). The mice distributed at random into groups of 10 animals, are deprived of solid food for the 18-hour period prior to the test. […] Thirty minutes after treatment the mice are injected i.p. with 0.1 ml/10 g of a 1.5% acetic acid solution. The writhing is recorded for a 20 min. period following this i.p. injection.

[2] = Long-term toxicity in rats: hematological parameters; format: in vivo, rat; conditions: daily oral Bromhexine 250 mg/kg, IFT 1026 350 mg/kg
Description: The hematological and biochemical values relating to the groups under treament with the above reported doses are shown in Tables Nos. 4 and 5. These values are virtually the same for both treated and control animals.
Effect of daily oral administration of Bromhexine 250 mg/kg
and IFT 1026 350 mg/kg on the hematological parameters in […]

[3] = Long-term toxicity in rats: biochemical parameters; format: in vivo, rat; conditions: daily oral 250 mg/kg Bromhexine, 350 mg/kg IFT 1026
[4] = Long-term toxicity in rats (16 weeks): mean body weight; format: in vivo
Excerpt: Effect of daily oral administration of various doses of
IFT 1026 and Bromhexine on mean body weight of rats.

[5] = tested on: Cough elicited by 15% citric acid spray; assay: Antitussive activity in mice, citric acid spray cough; format: in vivo; conditions: Mus musculus, oral, 1 hour after administration, confidence limits P = 0.05
Description: (§3) (6) Antitussive effect in Guinea-pigs and mice
(§4) Cough is elicited by 15% citric acid spray in both species, according to the method by Harsany et al. (Boll. Chim. Farm. 112, 691, 1973). The effect was tested 1 hour after oral administration and 30 min. after intraperitoneal application of the antitussive agents on mice and Guinea-pigs respectively.
(§5) ED50 values of the drugs are computed by the method of Litchfield and Wilcoxon (Litchfield, J. T. Jr., and Wilcoxon F., J. Pharmacol. exp. Ther. 96,99--1949).

[6] = Long-term toxicity in rats: mortality, pathology and general state
Description: Long-term toxicity (16 weeks) of IFT 1026 is tested in comparison to the parent compound (Bromhexine).

noci-ceptive stimuli = assay: Study of analgesic action on mice (both tests); format: in vivo; conditions: 300 mg/kg oral
Description: as §1, §2
(§6) (b) Pain induced by a physical stimulation according to the hot-plate test technique by Eddy and Leimbach (Eddy, N. B. and Leimbach, O., J. Pharmacol. exp.Ther. 107, 383--1953). The temperature of the plate was kept at 57° C. Groups of 12 mice are treated as described under (a) above. The reaction times are measured 15 min. before treatment (Ro) and 4 times after the administration (every 15 min). Only the maximal response is taken into account (Rmax).

[7] = Eight-day toxicity studies in mice, lethality (i.p.); format: in vivo; conditions: for Total number of deaths: 8 days
Excerpt: Eight-day toxicity studies of IFT 1026 and Bromhexine in mice.

[8] = tested on: Pain induced by a physical stimulation; assay: Hot-plate Test (Eddy and Leimbach): pain induced by a physical stimulation; format: in vivo, mice; conditions: mouse, 300 mg/kg oral, plate at 57° C.
Description: as §1, §6

[9] = Long-term toxicity in rats: organ weights at necropsy; format: in vivo; conditions: fresh weight, daily oral 250 mg/kg Bromhexine, 350 mg/kg IFT 1026
Description: Effect of daily oral administration of 250 mg/kg Bromhexine and 350 mg/kg
organ weights of rats, expressed as grams of fresh weight.

[10] = Bromsulphtalein (BSP) clearance in rats treated with the lower dose; format: in vivo; conditions: 30 min after 50 mg/kg BSP i.v., lower dose of drug
Description: The possibility to use BSP for the diagnosis of lesions in liver parenchyma is well known. Bromsulphtalein (BSP) clearance was made according to Carpi and Parenti (Carpi, C. and M. A. Parenti, Il Farmaco, Ed. Pr. vol. 17, page 45, 1962). Thirty minutes after the i.v. administration of 50 mg/kg BSP to control rats, the mean plasma level of the dyestuff is 80±12 mcg/ml.
% of rate showing BSP plasma levels greater than 80 mcg/ml
(control values) and 160 mcg/ml (two-fold control values)

[11] = tested on: Cough elicited by 15% citric acid spray; assay: Antitussive activity in Guinea-pigs, citric acid spray cough; format: in vivo; conditions: Cavia porcellus, ip, 0.5 h, intraperitoneal, 30 min. after application, confidence limits P = 0.05
Description: as §3, §4, §5

COc1ccccc1OCC(=O)Nc1c(Br)cc(Br)cc1CN(C)C1CCCCC1 [IFT 1026, N-(2-guaiacol-glycolyl-amino-3,5-dibromobenzyl)N-cyclohexylmethylamine]
Siegmund Test, number of writhings for a 20 min. period, mean ± SE [1]: 34 ± 3
RBC, mean ± SE ([2]; females): 817 ± 58 10^6 /ml
WBC, mean ± SE ([2]; females): 179 ± 26 10^2 /ml
RBC, mean ± SE ([2]; males): 657 ± 60 10^6 /ml
WBC, mean ± SE ([2]; males): 140 ± 10 10^2 /ml
A/G ratio (Albumin/Globulin), mean ± SE ([3]; females): 2.6 ± 0.3
BUN, mean ± SE ([3]; females): 41.1 ± 2 mg %
GLUCOSE, mean ± SE ([3]; females): 85.9 ± 8 mg %
SGOT, mean ± SE ([3]; females): 25.1 ± 0.3 Units/ml
SGPT, mean ± SE ([3]; females): 13.2 ± 0.4 Units/ml
TOTAL PROTEIN, mean ± SE ([3]; females): 30.6 ± 2.4 mg/mL
A/G ratio (Albumin/Globulin), mean ± SE ([3]; males): 2.2 ± 0.1
BUN, mean ± SE ([3]; males): 39.9 ± 5 mg %
GLUCOSE, mean ± SE ([3]; males): 73.7 ± 5 mg %
SGOT, mean ± SE ([3]; males): 24.5 ± 0.6 Units/ml
SGPT, mean ± SE ([3]; males): 13.1 ± 0.7 Units/ml
TOTAL PROTEIN, mean ± SE ([3]; males): 28.2 ± 2.1 mg/mL
body weight, mean ± SE ([4]; females, 70 mg/kg daily oral, 0 days): 125 ± 6 g
body weight, mean ± SE ([4]; females, 70 mg/kg daily oral, 21 days): 181 ± 5 g
body weight, mean ± SE ([4]; females, 70 mg/kg daily oral, 45 days): 218 ± 2 g
body weight, mean ± SE ([4]; females, 70 mg/kg daily oral, 60 days): 242 ± 2 g
body weight, mean ± SE ([4]; females, 350 mg/kg daily oral, 0 days): 118 ± 2 g
body weight, mean ± SE ([4]; females, 350 mg/kg daily oral, 21 days): 179 ± 5 g
body weight, mean ± SE ([4]; females, 350 mg/kg daily oral, 45 days): 225 ± 7 g
body weight, mean ± SE ([4]; females, 350 mg/kg daily oral, 60 days): 232 ± 10 g
body weight, mean ± SE ([4]; females, 1400 mg/kg daily oral, 0 days): 122 ± 5 g
body weight, mean ± SE ([4]; females, 1400 mg/kg daily oral, 21 days): 173 ± 7 g
body weight, mean ± SE ([4]; females, 1400 mg/kg daily oral, 45 days): 211 ± 5 g
body weight, mean ± SE ([4]; females, 1400 mg/kg daily oral, 60 days): 221 ± 8 g
body weight, mean ± SE ([4]; males, 70 mg/kg daily oral, 0 days): 117 ± 7 g
body weight, mean ± SE ([4]; males, 70 mg/kg daily oral, 21 days): 220 ± 4 g
body weight, mean ± SE ([4]; males, 70 mg/kg daily oral, 45 days): 310 ± 4 g
body weight, mean ± SE ([4]; males, 70 mg/kg daily oral, 60 days): 370 ± 6 g
body weight, mean ± SE ([4]; males, 350 mg/kg daily oral, 0 days): 123 ± 8 g
body weight, mean ± SE ([4]; males, 350 mg/kg daily oral, 21 days): 226 ± 6 g
body weight, mean ± SE ([4]; males, 350 mg/kg daily oral, 45 days): 290 ± 7 g
body weight, mean ± SE ([4]; males, 350 mg/kg daily oral, 60 days): 368 ± 4 g
body weight, mean ± SE ([4]; males, 1400 mg/kg daily oral, 0 days): 121 ± 5 g
body weight, mean ± SE ([4]; males, 1400 mg/kg daily oral, 21 days): 222 ± 7 g
body weight, mean ± SE ([4]; males, 1400 mg/kg daily oral, 45 days): 295 ± 8 g
body weight, mean ± SE ([4]; males, 1400 mg/kg daily oral, 60 days): 365 ± 9 g
variations in the body weights versus control group ([4]; rats, exception: Bromhexine 1000 mg/kg/day): no significant variations
ED50 [5]: 298 mg/kg
animals that died during the study ([6]; rat, in vivo): 2 animals
changes in general state of health, behaviour, body weight, blood and viscera ([6]; rat, in vivo): no significant changes
long-term toxicity in the rats ([6]; rat, in vivo): weak
toxicity compared with Bromhexine (parent compound) ([6]; rats, subacute and long-term administration): less toxic than Bromhexine; also recorded: less toxic than the parent compound
Responses to algogenic stimuli (noci-ceptive stimuli): not suppressed
Number of deaths at day 3 ([7]; daily dose 450 mg/k): 1
Total number of deaths ([7]; daily dose 450 mg/k): 1/10
Number of deaths at day 2 ([7]; daily dose 900 mg/k): 1
Total number of deaths ([7]; daily dose 900 mg/k): 1/10
Hot-plate Test (R max/Ro), mean ± SE [8]: 1.62 ± 0.26
organ weight, Adrenal glands ([9]; females): 4.6 ± 0.1 10^-2 grams
organ weight, Brain ([9]; females): 19.4 ± 1 10^-1 grams
organ weight, Heart ([9]; females): 7.3 ± 0.8 10^-1 grams
organ weight, Kidneys ([9]; females): 18.2 ± 0.4 10^-1 grams
organ weight, Liver ([9]; females): 10.1 ± 0.3 grams
organ weight, Lungs ([9]; females): 14.2 ± 1.1 10^-1 grams
organ weight, Spleen ([9]; females): 6.5 ± 0.2 10^-1 grams
organ weight, Adrenal glands ([9]; males): 3.7 ± 0.5 10^-2 grams
organ weight, Brain ([9]; males): 13.4 ± 0.4 10^-1 grams
organ weight, Heart ([9]; males): 7.1 ± 0.4 10^-1 grams
organ weight, Kidneys ([9]; males): 18.3 ± 0.4 10^-1 grams
organ weight, Liver ([9]; males): 9.7 ± 0.9 grams
organ weight, Lungs ([9]; males): 9.1 ± 0.8 10^-1 grams
organ weight, Spleen ([9]; males): 6.3 ± 0.3 10^-1 grams
% showing BSP plasma levels >160 mcg/ml ([10]; X^2 = 0.43, N.S.): 5.5%
rats showing BSP plasma levels >160 mcg/ml, number/tested ([10]; X^2 = 0.43, N.S.): 1/18
% showing BSP plasma levels >80 mcg/ml ([10]; X^2 = 0.7, N.S.): 28%
rats showing BSP plasma levels >80 mcg/ml, number/tested ([10]; X^2 = 0.7, N.S.): 5/18
ED50 [11]: 189 mg/kg
